In ChEMBL document CHEMBL1201862, “PubChem BioAssay data set” (2004):
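A five-concentration, 48-hour dose response in 96-well plates underlies each endpoint, interpolated linearly between surrounding concentrations. The concentration for 50% growth inhibition is given as GI50.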 Active and inactive are the calls of the source. Rule as the data show it: active = GI50 up to about 1.1 µM and inactive = higher.

Columns and labels:
Assay in all cases: inhibition of tumour cell growth, NCI panel, 48 h
786-0 = tested on: 786-0
A498 = tested on: A498
A549 = tested on: A549
ACHN = tested on: ACHN
BT-549 = tested on: BT-549
CAKI-1 = tested on: CAKI-1
CCRF-CEM = tested on: CCRF-CEM
COLO 205 = tested on: COLO 205
DU-145 = tested on: DU-145
EKVX = tested on: EKVX
HCC 2998 = tested on: HCC 2998
HCT-116 = tested on: HCT-116
HCT-15 = tested on: HCT-15
HL-60 = tested on: HL-60
HOP-62 = tested on: HOP-62
HOP-92 = tested on: HOP-92
HT-29 = tested on: HT-29
Hs-578T = tested on: Hs-578T
IGROV-1 = tested on: IGROV-1
K562 = tested on: K562
KM12 = tested on: KM12
LOX IMVI = tested on: LOX IMVI
MCF7 = tested on: MCF7
MDA-MB-231 = tested on: MDA-MB-231
MDA-MB-435 = tested on: MDA-MB-435
MDA-N = tested on: MDA-N
MOLT-4 = tested on: MOLT-4
Malme-3M = tested on: Malme-3M
NCI-H226 = tested on: NCI-H226
NCI-H23 = tested on: NCI-H23
NCI-H460 = tested on: NCI-H460
NCI-H522 = tested on: NCI-H522
NCI/ADR-RES = tested on: NCI/ADR-RES
OVCAR-3 = tested on: OVCAR-3
OVCAR-4 = tested on: OVCAR-4
OVCAR-5 = tested on: OVCAR-5
OVCAR-8 = tested on: OVCAR-8
PC-3 = tested on: PC-3
RPMI-8226 = tested on: RPMI-8226
RXF 393 = tested on: RXF 393
SF-268 = tested on: SF-268
SF-295 = tested on: SF-295
SF-539 = tested on: SF-539
SK-MEL-28 = tested on: SK-MEL-28
SK-MEL-2 = tested on: SK-MEL-2
SK-MEL-5 = tested on: SK-MEL-5
SK-OV-3 = tested on: SK-OV-3
SN12C = tested on: SN12C
SNB-19 = tested on: SNB-19
SNB-75 = tested on: SNB-75
SR = tested on: SR
SW-620 = tested on: SW-620
T47D = tested on: T47D
TK-10 = tested on: TK-10
U-251 = tested on: U-251
UACC-257 = tested on: UACC-257
UACC-62 = tested on: UACC-62
UO-31 = tested on: UO-31
M14 = tested on: M14

In the case of `C=C1CC(CNc2cc(Cl)nc(N)n2)C1`, the GI50 (786-0) was > 100 µM (inactive), the GI50 (A498) was 1.99 µM (inactive) and the GI50 (A549) was > 100 µM (inactive). For the same molecule, the GI50 (ACHN) was > 100 µM (inactive), the GI50 (BT-549) was 77.3 µM (inactive) and the GI50 (CAKI-1) was 74.5 µM (inactive). For the same molecule, the GI50 (CCRF-CEM) was > 100 µM (inactive), the GI50 (COLO 205) was > 100 µM (inactive) and the GI50 (DU-145) was > 100 µM (inactive). For the same molecule, the GI50 (EKVX) was 23.1 µM (inactive), the GI50 (HCC 2998) was > 100 µM (inactive) and the GI50 (HCT-116) was > 10 µM (inactive). For the same molecule, the GI50 (HCT-15) was 67.8 µM, the GI50 (HL-60) was > 100 µM (inactive) and the GI50 (HOP-62) was > 100 µM (inactive). For the same molecule, the GI50 (HOP-92) was 78.2 µM (inactive), the GI50 (HT-29) was > 100 µM (inactive) and the GI50 (Hs-578T) was 51.4 µM (inactive). For the same molecule, the GI50 (IGROV-1) was > 100 µM (inactive), the GI50 (K562) was 71.6 µM (inactive) and the GI50 (KM12) was > 100 µM (inactive). The GI50 (LOX IMVI) was > 100 µM (inactive), the GI50 (MCF7) was > 100 µM (inactive) and the GI50 (MDA-MB-231) was > 100 µM (inactive). The GI50 (MDA-MB-435) was > 100 µM (inactive), the GI50 (MDA-N) was > 100 µM (inactive) and the GI50 (MOLT-4) was > 100 µM (inactive). For the same molecule, the GI50 (Malme-3M) was > 100 µM (inactive), the GI50 (NCI-H226) was 54.2 µM (inactive) and the GI50 (NCI-H23) was > 100 µM (inactive). For the same molecule, the GI50 (NCI-H460) was > 100 µM (inactive), the GI50 (NCI-H522) was 96.8 µM (inactive) and the GI50 (NCI/ADR-RES) was 62.7 µM (inactive). The GI50 (OVCAR-3) was 95.7 µM (inactive), the GI50 (OVCAR-4) was 57.1 µM (inactive) and the GI50 (OVCAR-5) was > 100 µM (inactive). For the same molecule, the GI50 (OVCAR-8) was > 100 µM (inactive), the GI50 (PC-3) was > 100 µM (inactive) and the GI50 (RPMI-8226) was 49.9 µM (inactive). For the same molecule, the GI50 (RXF 393) was 50.9 µM (inactive), the GI50 (SF-268) was > 100 µM (inactive) and the GI50 (SF-295) was > 100 µM (inactive). For the same molecule, the GI50 (SF-539) was > 100 µM (inactive), the GI50 (SK-MEL-28) was > 100 µM (inactive) and the GI50 (SK-MEL-2) was > 100 µM (inactive). The GI50 (SK-MEL-5) was 50.5 µM (inactive), the GI50 (SK-OV-3) was 44.9 µM (inactive) and the GI50 (SN12C) was > 100 µM (inactive). The GI50 (SNB-19) was > 100 µM (inactive), the GI50 (SNB-75) was > 100 µM (inactive) and the GI50 (SR) was > 100 µM (inactive). The GI50 (SW-620) was > 100 µM (inactive), the GI50 (T47D) was > 10 µM (inactive) and the GI50 (TK-10) was > 100 µM (inactive). For the same molecule, the GI50 (U-251) was 55.6 µM (inactive), the GI50 (UACC-257) was 39.6 µM (inactive) and the GI50 (UACC-62) was > 100 µM (inactive). The GI50 (UO-31) was > 100 µM (inactive).
With `O=C(c1ccsc1)c1cc2c(s1)C(=O)c1ccsc1C2=O` the GI50 (786-0) was 0.189 µM (active), the GI50 (A498) was 1.58 µM (inactive) and the GI50 (A549) was 0.612 µM (active). The GI50 (ACHN) was 0.0959 µM (active), the GI50 (BT-549) was 0.0807 µM (active) and the GI50 (CAKI-1) was 0.499 µM (active). The GI50 (CCRF-CEM) was 0.155 µM (active), the GI50 (COLO 205) was 1.51 µM (inactive) and the GI50 (DU-145) was 0.159 µM (active). For the same molecule, the GI50 (EKVX) was 0.2 µM (active), the GI50 (HCC 2998) was 0.537 µM (active) and the GI50 (HCT-116) was 0.195 µM (active). For the same molecule, the GI50 (HCT-15) was 0.155 µM, the GI50 (HL-60) was 1.48 µM (inactive) and the GI50 (HOP-62) was 0.168 µM (active). The GI50 (HOP-92) was 0.34 µM (active), the GI50 (HT-29) was 0.676 µM (active) and the GI50 (Hs-578T) was 0.209 µM (active). For the same molecule, the GI50 (IGROV-1) was 0.204 µM (active), the GI50 (K562) was 0.184 µM (active) and the GI50 (KM12) was 0.191 µM (active). For the same molecule, the GI50 (LOX IMVI) was 0.0211 µM (active), the GI50 (M14) was 0.116 µM (active) and the GI50 (MCF7) was 0.182 µM (active). The GI50 (MDA-MB-231) was 0.0755 µM (active), the GI50 (MDA-MB-435) was 0.0271 µM (active) and the GI50 (MDA-N) was 0.0237 µM (active). The GI50 (MOLT-4) was 0.435 µM (active), the GI50 (Malme-3M) was 0.0202 µM (active) and the GI50 (NCI-H226) was 0.552 µM (active). For the same molecule, the GI50 (NCI-H23) was 0.137 µM (active), the GI50 (NCI-H460) was 0.184 µM (active) and the GI50 (NCI-H522) was 0.137 µM (active). The GI50 (NCI/ADR-RES) was 0.137 µM (active), the GI50 (OVCAR-3) was 0.0624 µM (active) and the GI50 (OVCAR-4) was 0.177 µM (active). The GI50 (OVCAR-5) was 0.552 µM (active), the GI50 (OVCAR-8) was 0.178 µM (active) and the GI50 (PC-3) was 0.29 µM (active). For the same molecule, the GI50 (RPMI-8226) was 0.136 µM (active), the GI50 (RXF 393) was 0.178 µM (active) and the GI50 (SF-268) was 0.165 µM (active). The GI50 (SF-295) was 0.174 µM (active), the GI50 (SF-539) was 0.0671 µM (active) and the GI50 (SK-MEL-28) was 0.142 µM (active). For the same molecule, the GI50 (SK-MEL-2) was 0.281 µM (active), the GI50 (SK-MEL-5) was 0.0279 µM (active) and the GI50 (SK-OV-3) was 1.61 µM (inactive). The GI50 (SN12C) was 0.0635 µM (active), the GI50 (SNB-19) was 0.177 µM (active) and the GI50 (SNB-75) was 0.171 µM (active). The GI50 (SR) was 1.87 µM (inactive), the GI50 (SW-620) was 0.17 µM (active) and the GI50 (T47D) was 0.235 µM (active). For the same molecule, the GI50 (TK-10) was 0.64 µM (active), the GI50 (U-251) was 0.159 µM (active) and the GI50 (UACC-257) was 0.174 µM (active). For the same molecule, the GI50 (UACC-62) was 0.194 µM (active) and the GI50 (UO-31) was 0.0893 µM (active).
In the case of `O=C1C(Cl)C2(CC(/C=C/c3cccs3)=NN2c2cccc(S(=O)(=O)O)c2)N1c1nc2ccccc2s1` (configuration not stated), the GI50 (786-0) was 94.6 µM (inactive), the GI50 (A498) was 76.2 µM (inactive) and the GI50 (A549) was 42 µM (inactive). The GI50 (ACHN) was 58.3 µM (inactive), the GI50 (BT-549) was 55.6 µM (inactive) and the GI50 (CAKI-1) was 37.1 µM (inactive). The GI50 (CCRF-CEM) was 20.1 µM (inactive), the GI50 (COLO 205) was > 100 µM (inactive) and the GI50 (DU-145) was 21.6 µM (inactive). The GI50 (EKVX) was 24.2 µM (inactive), the GI50 (HCC 2998) was > 100 µM (inactive) and the GI50 (HCT-116) was > 100 µM (inactive). The GI50 (HCT-15) was 75.9 µM, the GI50 (HL-60) was 64.6 µM (inactive) and the GI50 (HOP-92) was 1.79 µM (inactive). The GI50 (HT-29) was 73.5 µM (inactive), the GI50 (Hs-578T) was > 100 µM (inactive) and the GI50 (IGROV-1) was 21.1 µM (inactive). For the same molecule, the GI50 (K562) was 35.6 µM (inactive), the GI50 (KM12) was > 100 µM (inactive) and the GI50 (LOX IMVI) was 15.1 µM (inactive). The GI50 (M14) was 99.3 µM (inactive), the GI50 (MCF7) was 46.6 µM (inactive) and the GI50 (MDA-MB-231) was > 100 µM (inactive). For the same molecule, the GI50 (MDA-MB-435) was 45.8 µM (inactive), the GI50 (MDA-N) was > 100 µM (inactive) and the GI50 (MOLT-4) was 31.5 µM (inactive). The GI50 (Malme-3M) was > 100 µM (inactive), the GI50 (NCI-H226) was 27.9 µM (inactive) and the GI50 (NCI-H23) was 27.8 µM (inactive). The GI50 (NCI-H460) was 31.1 µM (inactive), the GI50 (NCI-H522) was 18.2 µM (inactive) and the GI50 (NCI/ADR-RES) was > 100 µM (inactive). The GI50 (OVCAR-4) was 71.3 µM (inactive), the GI50 (OVCAR-5) was > 100 µM (inactive) and the GI50 (OVCAR-8) was 41.7 µM (inactive). The GI50 (PC-3) was > 100 µM (inactive), the GI50 (RPMI-8226) was 47 µM (inactive) and the GI50 (RXF 393) was > 100 µM (inactive). The GI50 (SF-268) was > 100 µM (inactive), the GI50 (SF-539) was > 100 µM (inactive) and the GI50 (SK-MEL-28) was > 100 µM (inactive). For the same molecule, the GI50 (SK-MEL-2) was > 100 µM (inactive), the GI50 (SK-MEL-5) was 16.9 µM (inactive) and the GI50 (SN12C) was > 100 µM (inactive). For the same molecule, the GI50 (SNB-19) was > 100 µM (inactive), the GI50 (SNB-75) was 49.9 µM (inactive) and the GI50 (SR) was 29.9 µM (inactive). The GI50 (SW-620) was > 100 µM (inactive), the GI50 (T47D) was 13.6 µM (inactive) and the GI50 (TK-10) was 19.3 µM (inactive). For the same molecule, the GI50 (U-251) was 99.8 µM (inactive), the GI50 (UACC-257) was 76.9 µM (inactive) and the GI50 (UACC-62) was 59.6 µM (inactive). The GI50 (UO-31) was 10.9 µM (inactive).
